Measurements published in EP4417607A1, “HETEROCYCLIC COMPOUND AS SOS1 INHIBITOR AND USES THEREOF” (Nanjing Zaiming Pharmaceutical Co., Ltd., priority 2021, dated 2023).

Key:
[1] = test system: p-ERK pathway in H358 cells; test: p-ERK pathway inhibition in H358 cells (Advanced phospho-ERK (Thr202/Tyr204) cellular kit, HTRF); format: cell-based; settings: Homo sapiens, NCI-H358, 1 h compound incubation
How it was run: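 IC50 from an 8-point four-parameter fit of % inhibition of ERK Thr202/Tyr204 phosphorylation, measured by HTRF 665/620 ratio in lysates. H358 cells were seeded at 50000/well, starved overnight without serum, and exposed to compound 1 h at 37 °C; controls were cell-free (100%) and untreated (0%).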

[2] = Plasma protein binding rate by equilibrium dialysis; format: in vitro ADME; settings: CD-1 mouse plasma, 1 µM compound, 6 h dialysis at 37 °C
Protocol: • 1. CD-1 mouse plasma (BioIVT) • 2. 96-well equilibrium dialysis plate (HTDialysis LLC, Gales Ferry, CT, HTD96B) and equilibrium dialysis membrane (MWCO 12-14K, #1101) • 3. Positive control compound warfarin • 4. ABI QTrap 5500 liquid chromatography-mass spectrometry system
• 1. Preparation of a buffer with a concentration of 100 mM sodium phosphate and 150 mM NaCl: an alkaline solution with a concentration of 14.2 g/L Na2HPO4 and 8.77 g/L NaCl was prepared with ultrapure water, and an acidic solution with a concentration of 12.0 g/L NaH2PO4 and 8.77 g/L NaCl was prepared with ultrapure water. The alkaline solution was titrated with the acidic solution until the pH was 7.4 to prepare a buffer with a concentration of 100 mM sodium phosphate and 150 mM NaCl. • 2. Preparation of a dialysis membrane: the dialysis membrane was soaked in ultrapure water for 60 min to separate the membrane into two pieces, then soaked with 20% ethanol for 20 min, and finally soaked with dialysis buffer for 20 min. • 3. Preparation of plasma: the frozen plasma was quickly thawed at room temperature and then centrifuged at 3,220 g at 4 °C for 10 min to remove clots, and the supernatant was collected to a new centrifuge tube. The pH of the plasma was measured and recorded. The plasma with pH 7-8 was used. • 4. Preparation of a plasma sample containing the compound: A 10 mM stock solution of the compound or the positive control compound was diluted with DMSO to give a 200 µM working solution. 3 µL of 200 µM of the compound working solution was added to 597 µL of mouse plasma to give a plasma sample with a final concentration of 1 µM. • 5. Equilibrium dialysis procedures: a dialysis device was assembled according to the instructions. […]
The peak areas of the compound on the buffer side and the plasma side were measured. The plasma protein binding rate of the compound was calculated by the following formula: [formula] %Binding rate = 1−%Free rate [formula]
All data were calculated by Microsoft Excel software. […]

| Structure (SMILES) | IC50 [1] [nM] | %Binding rate [2] [%] |
| --- | --- | --- |
| [2H][C@](C)(Nc1nc(C)nc2c(N3CCOCC3)c(=O)n(C3(CF)CC3)cc12)c1cccc(C(F)F)c1F [Example 55, (R)-4-((1-(3-(difluoromethyl)-2-fluorophenyl)ethyl-1-d)amino)-6-(1-(fluoromethyl)cyclopropyl)-2-methyl-8-morpholinylpyrido[4,3-d]pyrimidine-7(6H)-one] | 30.3 | 95.7 |
| Cc1nc(N[C@H](C)c2cccc(C(F)F)c2F)c2cn(C3(CF)CC3)c(=O)c(N3CCOC[C@@H]3C)c2n1 [Example 40, 4-(((R)-1-(3-(difluoromethyl)-2-fluorophenyl)ethyl)amino)-6-(1-(fluoromethyl)cyclopropyl)-2-methyl-8-((S)-3-methylmorpholine)pyrido[4,3-d]pyrimidine-7(6H)-one] | 19.9 | 92.9 |

Continued, in another order:

| IC50 [1] [nM] | Structure (SMILES) | %Binding rate [2] [%] |
| --- | --- | --- |
| 9.18 | Cc1nc(N[C@H](C)c2cccc(C(F)F)c2F)c2cn(C3(CF)CC3)c(=O)c(N3CCOCC3)c2n1 [Example 34, (R)-4-((1-(3-(difluoromethyl)-2-fluorophenyl)ethyl)amino)-6-(1-(fluoromethyl)cyclopropyl)-2-methyl-8-morpholinylpyrido[4,3-d]pyrimidine-7(6H)-one] |  |
| 41.9 | COc1c(=O)n(N2CCOCC2)cc2c(N[C@H](C)c3cccc(C(F)F)c3F)nc(C)nc12 [Example 20, (R)-4-((1-(3-(difluoromethyl)-2-fluorophenyl)ethyl)amino)-8-methoxy-2-methyl-6-morpholinepyrido[4,3-d]pyrimidine-7(6H)-one] |  |
| 44.9 | [2H]C([2H])([2H])Oc1c(=O)n(C2(CF)CC2)cc2c(N[C@H](C)c3cccc(C(F)F)c3F)nc(C)nc12 [Example 23, (R)-4-((1-(3-(difluoromethyl)-2-fluorophenyl)ethyl)amino)-6-(1-(fluoromethyl)cyclopropyl)-8-(methoxy-d3)-2-methylpyrido[4,3-d]pyrimidine-7(6H)-one] | 91.3 |
